In patent US8518912B2, “Phosphonic acid derivates and their use as P2Y12 receptor antagonists” (Actelion Pharmaceuticals Ltd., priority 2008, dated 2013) one finds IC50 data, which are given here for 21 molecules.

Each structure is given as a SMILES string.

The target in the experiment is T1, human P2Y12 receptor (Homo sapiens, UniProt Q9H244).
T1 construct: expressed in transfected cells; host or cells: Chinese Hamster Ovary (CHO) cells
T1 sequence (Q9H244 whole entry): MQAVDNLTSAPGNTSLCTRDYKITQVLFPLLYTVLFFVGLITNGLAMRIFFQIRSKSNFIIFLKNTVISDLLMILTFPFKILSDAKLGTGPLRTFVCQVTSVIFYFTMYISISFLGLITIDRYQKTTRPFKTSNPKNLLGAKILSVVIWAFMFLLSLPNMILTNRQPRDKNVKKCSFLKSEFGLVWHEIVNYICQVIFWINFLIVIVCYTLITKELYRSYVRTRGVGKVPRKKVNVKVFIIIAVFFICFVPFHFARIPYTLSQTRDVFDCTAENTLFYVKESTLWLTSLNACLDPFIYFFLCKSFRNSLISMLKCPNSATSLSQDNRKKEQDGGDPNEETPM
Put plainly: P2Y12 receptor binding assay. The conditions noted are these: CHO cells with recombinant human P2Y12 receptor; tritium-labeled 2-methyl-S-ADP; 2 hours at RT. The method, then:
Chinese Hamster Ovary (CHO) cells with recombinant expression of the human P2Y12 receptor were cultured in 24 well cell-culture plates. Cells were washed three times with binding buffer (50 mM Tris pH 7.4, 100 mM NaCl, […], 0.5% BSA). The cells were then incubated with 0.5 ml per well binding buffer containing tritium-labeled 2-methyl-thio-adenosine 5′-diphosphate (2-methyl-S-ADP) (between 100,000 and 300,000 dpm per well) and various concentrations of test compounds. After incubation at RT for 2 hours, cells were washed three times with binding buffer. Then, cells were solubilized by addition of 0.5 ml solubilization buffer (SDS, NaOH, EDTA). The content of each well was then transferred into beta-counter vials and 2.0 ml of Ultima Gold Scintillation liquid was added.
As for `CCCCOC(=O)N1CCN(C(=O)[C@H](CP(=O)(N[C@H](C(=O)OC)c2ccccc2)N[C@H](C(=O)OC)c2ccccc2)NC(=O)c2cc(N3CC[C@H](OC)C3)nc(-c3ccccc3)n2)CC1` [Example 88, N,N′-Bis-((S)-1-methoxycarbonyl-1-phenyl-methyl)-2-{(R)-[6-((S)-3-methoxy-pyrrolidin-1-yl)-2-phenyl-pyrimidine-4-carbonyl]-amino}-3-oxo-3-(4-butoxy-carbonyl-piperazin-1-yl)-propyl-phosphonic acid diamide], the IC50 (in general, the concentration that gives 50% inhibition) amounted to 22 nM. For `CCCCOC(=O)N1CCN(C(=O)[C@H](CCP(=O)(O)O)NC(=O)c2cc(N3CCOCC3)nc(-c3ccccc3)n2)CC1` [Example 12, 4-{(S)-2-[(6-morpholin-4-yl-2-phenyl-pyrimidine-4-carbonyl)-amino]-4-phosphono-butyryl}-piperazine-1-carboxylic acid butyl ester], the IC50 was 5.9 nM. Regarding `CCCCOC(=O)N1CCN(C(=O)[C@H](CP(=O)(O)O)NC(=O)c2cc(C3CC3)nc(-c3ccccc3)n2)CC1` [Example 35, 4-{(R)-2-[(6-cyclopropyl-2-phenyl-pyrimidine-4-carbonyl)-amino]-3-phosphono-propionyl}-piperazine-1-carboxylic acid butyl ester], the IC50 was determined as 14 nM. With `CCOC(=O)N1CCN(C(=O)[C@H](CP(=O)(OCOC(C)=O)OCOC(C)=O)NC(=O)c2cc(N3CC[C@H](OC)C3)nc(-c3ccccc3)n2)CC1` [Example 120, 4-((R)-3-[Bis-(acetoxy-methoxy)-phosphoryl]-2-{[6-((S)-3-methoxy-pyrrolidin-1-yl)-2-phenyl-pyrimidine-4-carbonyl]-amino}-propionyl)-piperazine-1-carboxylic acid ethyl ester], the IC50 is 7 nM. On to `CCOC(=O)N1CCN(C(=O)[C@H](Cc2cccc(P(=O)(O)O)c2)NC(=O)c2cc(N3CC[C@H](OC)C3)nc(-c3ccccc3)n2)CC1` [Example 67, 4-[(S)-2-{[6-((S)-3-Methoxy-pyrrolidin-1-yl)-2-phenyl-pyrimidine-4-carbonyl]-amino}-3-(3-phosphono-phenyl)-propionyl]-piperazine-1-carboxylic acid ethyl ester], for which the IC50 came to 13 nM. With `CCCCOC(=O)N1CCN(C(=O)[C@H](CCP(=O)(NCC(=O)OCC)NCC(=O)OCC)NC(=O)c2cc(N3CC[C@H](OC)C3)nc(-c3ccccc3)n2)CC1` [Example 75, N,N′-Bis-(ethoxycarbonylmethyl)-3-{(S)-[6-((S)-3-methoxy-pyrrolidin-1-yl)-2-phenyl-pyrimidine-4-carbonyl]-amino}-4-oxo-4-(4-butoxy-carbonyl-piperazin-1-yl)-butyl-phosphonic acid diamide] the figure was 308 nM. For `CCCCOC(=O)N1CCN(C(=O)[C@@H](CCCP(=O)(O)O)NC(=O)c2cc(N3CC[C@H](OC)C3)nc(-c3ccccc3)n2)CC1` [Example 63, 4-((R)-2-{[6-((S)-3-Methoxy-pyrrolidin-1-yl)-2-phenyl-pyrimidine-4-carbonyl]-amino}-5-phosphono-pentanoyl)-piperazine-1-carboxylic acid butyl ester], the IC50 was 69 nM.

Turning to `CCCCOC(=O)N1CCN(C(=O)[C@H](CP2(=O)Nc3ccccc3CO2)NC(=O)c2cc(N3CC[C@H](OC)C3)nc(-c3ccccc3)n2)CC1` (mixture of isomers) [Example 103, 4-[(R)-2-{[6-((S)-3-Methoxy-pyrrolidin-1-yl)-2-phenyl-pyrimidine-4-carbonyl]-amino}-3-(2-oxo-1,4-dihydro-2H-2λ^5-benzo[d][1,3,2]oxazaphosphinin-2-yl)-propionyl]-piperazine-1-carboxylic acid butyl ester], the IC50 was 3.1 nM. Take `CCCCOC(=O)N1CCN(C(=O)[C@H](CP(=O)(O)O)NC(=O)c2cc(N3CCN(C)CC3)nc(-c3ccccc3)n2)CC1` [Example 73, 4-((R)-2-{[6-(4-Methyl-piperazin-1-yl)-2-phenyl-pyrimidine-4-carbonyl]-amino}-3-phosphono-propionyl)-piperazine-1-carboxylic acid butyl ester]: the IC50 was 3 nM. For `CCCCOC(=O)N1CCN(C(=O)[C@H](CP(=O)(O)O)NC(=O)c2cc(NCC)nc(-c3ccccc3)n2)CC1` [Example 16, 4-{(R)-2-[(6-ethylamino-2-phenyl-pyrimidine-4-carbonyl)-amino]-3-phosphono-propionyl}-piperazine-1-carboxylic acid butyl ester] the value was 4.5 nM.

On to `CCCCOC(=O)N1CCN(C(=O)[C@H](CP2(=O)OCCCO2)NC(=O)c2cc(N3CC[C@H](OC)C3)nc(-c3ccccc3)n2)CC1` [Example 109, 4-[(R)-2-{[6-((S)-3-Methoxy-pyrrolidin-1-yl)-2-phenyl-pyrimidine-4-carbonyl]-amino}-3-(2-oxo-2λ^5-[1,3,2]dioxaphosphinan-2-yl)-propionyl]piperazine-1-carboxylic acid butyl ester], for which the IC50 came to 208 nM. With `CCCCOC(=O)N1CCN(C(=O)[C@H](CP(=O)(O)OCOC(C)=O)NC(=O)c2cc(N3CC[C@H](OC)C3)nc(-c3ccccc3)n2)CC1` (mixture of isomers) [Example 115, 4-((R)-3-(Acetoxymethoxy-hydroxy-phosphoryl)-2-{[6-((S)-3-methoxy-pyrrolidin-1-yl)-2-phenyl-pyrimidine-4-carbonyl]-amino}-propionyl)-piperazine-1-carboxylic acid butyl ester] the figure was 5 nM; with `CCCCOC(=O)N1CCN(C(=O)[C@H](CP(=O)(OCOC(=O)OC(C)C)OCOC(=O)OC(C)C)NC(=O)c2cc(N3CC[C@H](OC)C3)nc(-c3ccccc3)n2)CC1` [Example 95, 4-((R)-3-[Bis-(isopropoxycarbonyloxy-methoxy)-phosphoryl]-2-{[6-((S)-3-methoxy-pyrrolidin-1-yl)-2-phenyl-pyrimidine-4-carbonyl]-amino}-propionyl)-piperazine-1-carboxylic acid butyl ester], 34 nM. As for `CCCCOC(=O)N1CCN(C(=O)C(NC(=O)c2cc(N3CC[C@H](OC)C3)nc(-c3ccccc3)n2)c2cccc(P(=O)(O)O)c2)CC1` (stereo partly drawn) [Example 71, 4-[2-{[6-((S)-3-Methoxy-pyrrolidin-1-yl)-2-phenyl-pyrimidine-4-carbonyl]-amino}-2-(3-phosphono-phenyl)-acetyl]-piperazine-1-carboxylic acid butyl ester], the IC50 is 4.5 nM. In the case of `CCCCOC(=O)N1CCN(C(=O)[C@H](CP(=O)(O)O)NC(=O)c2cc(O[C@H]3CCOC3)nc(-c3ccccc3)n2)CC1` [Example 37, 4-[(R)-2-({2-phenyl-6-[(S)-(tetrahydro-furan-3-yl)oxy]-pyrimidine-4-carbonyl}-amino)-3-phosphono-propionyl]-piperazine-1-carboxylic acid butyl ester], the IC50 stood at 78 nM. With `CCCCOC(=O)N1CCN(C(=O)[C@H](CP(=O)(OCc2oc(=O)oc2C)OCc2oc(=O)oc2C)NC(=O)c2cc(N3CC[C@H](OC)C3)nc(-c3ccccc3)n2)CC1` [Example 101, 4-((R)-3-[Bis-(5-methyl-2-oxo-[1,3]dioxol-4-ylmethoxy)-phosphoryl]-2-{[6-((S)-3-methoxy-pyrrolidin-1-yl)-2-phenyl-pyrimidine-4-carbonyl]-amino}-propionyl)-piperazine-1-carboxylic acid butyl ester] the figure was 3.2 nM; with `CCCCOC(=O)N1CCN(C(=O)[C@H](CP(=O)(N[C@@H](C)C(=O)OC)N[C@@H](C)C(=O)OC)NC(=O)c2cc(N3CC[C@H](OC)C3)nc(-c3ccccc3)n2)CC1` [Example 89, N,N′-Bis-((S)-1-methoxycarbonyl-ethyl)-2-{(R)-[6-((S)-3-methoxy-pyrrolidin-1-yl)-2-phenyl-pyrimidine-4-carbonyl]-amino}-3-oxo-3-(4-butoxy-carbonyl-piperazin-1-yl)-propyl-phosphonic acid diamide], 162 nM; with `CCCCOC(=O)N1CCN(C(=O)[C@H](CP(=O)(OCOC(=O)OC)OCOC(=O)OC)NC(=O)c2cc(N3CC[C@H](OC)C3)nc(-c3ccccc3)n2)CC1` [Example 93, 4-((R)-3-[Bis-(methoxycarbonyloxy-methoxy)-phosphoryl]-2-{[6-((S)-3-methoxy-pyrrolidin-1-yl)-2-phenyl-pyrimidine-4-carbonyl]-amino}-propionyl)-piperazine-1-carboxylic acid butyl ester], 3.5 nM. For `CCCCOC(=O)N1CCN(C(=O)C(NC(=O)c2cc(N3CC[C@H](OC)C3)nc(-c3ccccc3)n2)P(=O)(O)O)CC1` (stereo partly drawn) [Example 56, 4-(2-{[6-((S)-3-methoxy-pyrrolidin-1-yl)-2-phenyl-pyrimidine-4-carbonyl]-amino}-2-phosphono-acetyl)-piperazine-1-carboxylic acid butyl ester] the value was 162 nM; for `CCCCOC(=O)N1CCN(C(=O)[C@H](CP(=O)(O)O)NC(=O)c2cc(-c3ccc(OC)cc3)nc(-c3ccccc3)n2)CC1` [Example 34, 4-((R)-2-{[6-(4-methoxy-phenyl)-2-phenyl-pyrimidine-4-carbonyl]-amino}-3-phosphono-propionyl)-piperazine-1-carboxylic acid butyl ester], 13 nM; for `CCCCOC(=O)N1CCN(C(=O)[C@H](CP2(=O)OCc3cccc(C)c3O2)NC(=O)c2cc(N3CC[C@H](OC)C3)nc(-c3ccccc3)n2)CC1` (mixture of isomers) [Example 110, 4-[(R)-2-{[6-((S)-3-Methoxy-pyrrolidin-1-yl)-2-phenyl-pyrimidine-4-carbonyl]-amino}-3-(8-methyl-2-oxo-4H-2λ^5-benzo[1,3,2]dioxaphosphinin-2-yl)-propionyl]-piperazine-1-carboxylic acid butyl ester], 2.8 nM.
